Results from the NIST ThermoML archive (doi:10.1021/je0601457).
Numbers after ± are expanded uncertainties.

Experiment: xn = mol fraction of the nth substance listed

c1cnccn1 [pyrazine] + O=C=O
Fluid (supercritical or subcritical phases), Linear displacement technique
Conditions	mass density [kg/m3]
321.55 K, 14590 kPa, x1 = 0.177	866 ± 35
322.35 K, 7410 kPa, x1 = 0.495	980 ± 39
322.35 K, 10310 kPa, x1 = 0.495	990 ± 40
322.35 K, 13000 kPa, x1 = 0.495	963 ± 39
323.35 K, 10030 kPa, x1 = 0.074	825 ± 48
323.35 K, 10240 kPa, x1 = 0.074	835 ± 34
323.35 K, 11900 kPa, x1 = 0.074	876 ± 35
324.65 K, 9340 kPa, x1 = 0.015	394 ± 23
324.65 K, 9620 kPa, x1 = 0.015	408 ± 39
324.65 K, 9830 kPa, x1 = 0.015	423 ± 37
324.65 K, 10970 kPa, x1 = 0.015	576 ± 46
324.65 K, 11380 kPa, x1 = 0.015	611 ± 34
324.65 K, 11620 kPa, x1 = 0.015	627 ± 34
324.65 K, 11760 kPa, x1 = 0.015	640 ± 33
325.85 K, 10170 kPa, x1 = 0.116	739 ± 30
325.85 K, 13140 kPa, x1 = 0.116	767 ± 31
326.15 K, 9900 kPa, x1 = 0.019	460 ± 57
326.15 K, 10520 kPa, x1 = 0.019	580 ± 53
326.15 K, 11140 kPa, x1 = 0.019	656 ± 42
326.15 K, 11520 kPa, x1 = 0.019	688 ± 33
326.15 K, 12310 kPa, x1 = 0.019	729 ± 30
326.65 K, 8860 kPa, x1 = 0.397	1023 ± 41
326.65 K, 11070 kPa, x1 = 0.397	1027 ± 41
326.65 K, 14100 kPa, x1 = 0.397	1036 ± 41
327.25 K, 10170 kPa, x1 = 0.146	980 ± 39
327.25 K, 15900 kPa, x1 = 0.146	990 ± 46
328.15 K, 11830 kPa, x1 = 0.308	980 ± 39
328.15 K, 13760 kPa, x1 = 0.308	990 ± 40
328.15 K, 15340 kPa, x1 = 0.308	997 ± 40
332.95 K, 18030 kPa, x1 = 0.224	879 ± 35
334.05 K, 11550 kPa, x1 = 0.177	803 ± 33
334.05 K, 11900 kPa, x1 = 0.177	809 ± 32
334.05 K, 15590 kPa, x1 = 0.177	831 ± 33
334.75 K, 10340 kPa, x1 = 0.495	980 ± 39
334.75 K, 13550 kPa, x1 = 0.495	987 ± 39
334.75 K, 19410 kPa, x1 = 0.495	1002 ± 40
337.05 K, 11660 kPa, x1 = 0.146	760 ± 31
337.05 K, 15140 kPa, x1 = 0.146	792 ± 32
337.85 K, 12170 kPa, x1 = 0.09	738 ± 31
337.85 K, 12590 kPa, x1 = 0.09	752 ± 32
337.85 K, 15900 kPa, x1 = 0.09	815 ± 33
338.45 K, 11520 kPa, x1 = 0.019	475 ± 20
338.45 K, 11970 kPa, x1 = 0.019	512 ± 36
338.45 K, 12170 kPa, x1 = 0.019	526 ± 35
338.45 K, 12590 kPa, x1 = 0.019	565 ± 36
339.45 K, 12590 kPa, x1 = 0.074	708 ± 44
339.45 K, 13280 kPa, x1 = 0.074	750 ± 46
340.95 K, 12380 kPa, x1 = 0.116	693 ± 28
340.95 K, 15210 kPa, x1 = 0.116	739 ± 30
345.05 K, 12450 kPa, x1 = 0.224	823 ± 33
345.05 K, 19340 kPa, x1 = 0.224	858 ± 34
345.55 K, 10380 kPa, x1 = 0.397	995 ± 40
345.55 K, 12480 kPa, x1 = 0.397	999 ± 40
345.55 K, 12860 kPa, x1 = 0.397	1002 ± 40
347.75 K, 13030 kPa, x1 = 0.177	758 ± 31
347.75 K, 14100 kPa, x1 = 0.177	770 ± 31
347.75 K, 16790 kPa, x1 = 0.177	792 ± 32
348.05 K, 12310 kPa, x1 = 0.308	965 ± 39
348.05 K, 17620 kPa, x1 = 0.308	986 ± 39
348.05 K, 19720 kPa, x1 = 0.308	996 ± 40
348.95 K, 13380 kPa, x1 = 0.09	684 ± 27
348.95 K, 13690 kPa, x1 = 0.09	683 ± 27
348.95 K, 16450 kPa, x1 = 0.09	771 ± 32
350.55 K, 13760 kPa, x1 = 0.116	665 ± 27
350.55 K, 15520 kPa, x1 = 0.116	707 ± 29
350.85 K, 13410 kPa, x1 = 0.146	708 ± 28
351.95 K, 13450 kPa, x1 = 0.074	604 ± 27
351.95 K, 16280 kPa, x1 = 0.074	719 ± 31
352.35 K, 11140 kPa, x1 = 0.019	335 ± 23
352.35 K, 11210 kPa, x1 = 0.019	352 ± 21
352.35 K, 12310 kPa, x1 = 0.019	415 ± 23
352.35 K, 12480 kPa, x1 = 0.019	428 ± 22
352.35 K, 12790 kPa, x1 = 0.019	443 ± 22
360.85 K, 14860 kPa, x1 = 0.116	630 ± 26
360.85 K, 17720 kPa, x1 = 0.116	695 ± 29
362.25 K, 14720 kPa, x1 = 0.177	709 ± 29
362.25 K, 14830 kPa, x1 = 0.177	712 ± 29
362.25 K, 19480 kPa, x1 = 0.177	761 ± 31
362.35 K, 14660 kPa, x1 = 0.224	779 ± 31
362.35 K, 18660 kPa, x1 = 0.224	802 ± 32
365.65 K, 15210 kPa, x1 = 0.09	591 ± 24
366.25 K, 14930 kPa, x1 = 0.074	542 ± 22
366.25 K, 15760 kPa, x1 = 0.074	547 ± 23
366.25 K, 16860 kPa, x1 = 0.074	511 ± 23
369.65 K, 14550 kPa, x1 = 0.397	964 ± 39
369.65 K, 16410 kPa, x1 = 0.397	968 ± 39
369.65 K, 20720 kPa, x1 = 0.397	982 ± 39
372.55 K, 11480 kPa, x1 = 0.495	959 ± 38
372.55 K, 12720 kPa, x1 = 0.495	962 ± 38
372.55 K, 15000 kPa, x1 = 0.495	970 ± 39

linear displacement
Conditions	mass density [kg/m3]
321.55 K, Liquid, x1 = 0.177	834 ± 33
322.35 K, Liquid, x1 = 0.495	975 ± 39
323.35 K, Liquid, x1 = 0.074	810 ± 32
324.65 K, Gas, x1 = 0.015	382 ± 15
325.85 K, Liquid, x1 = 0.116	734 ± 30
326.15 K, Gas, x1 = 0.019	442 ± 18
326.65 K, Liquid, x1 = 0.397	1017 ± 41
327.25 K, Liquid, x1 = 0.146	790 ± 32
328.15 K, Liquid, x1 = 0.308	970 ± 39
332.95 K, Liquid, x1 = 0.224	842 ± 34
334.05 K, Liquid, x1 = 0.177	795 ± 32
334.75 K, Liquid, x1 = 0.495	972 ± 39
337.05 K, Liquid, x1 = 0.146	753 ± 30
337.85 K, Liquid, x1 = 0.09	727 ± 29
338.45 K, Gas, x1 = 0.019	431 ± 18
339.45 K, Liquid, x1 = 0.074	695 ± 28
340.95 K, Liquid, x1 = 0.116	684 ± 27
345.05 K, Liquid, x1 = 0.224	816 ± 33
345.55 K, Liquid, x1 = 0.397	991 ± 40
347.75 K, Liquid, x1 = 0.177	751 ± 30
348.05 K, Liquid, x1 = 0.308	957 ± 38
348.95 K, Liquid, x1 = 0.09	672 ± 27
350.55 K, Liquid, x1 = 0.116	651 ± 26
350.85 K, Liquid, x1 = 0.146	703 ± 29
351.95 K, Liquid, x1 = 0.074	589 ± 24
352.35 K, Gas, x1 = 0.019	324 ± 18
360.85 K, Liquid, x1 = 0.116	620 ± 25
362.25 K, Liquid, x1 = 0.177	704 ± 29
362.35 K, Liquid, x1 = 0.224	770 ± 31
365.65 K, Liquid, x1 = 0.09	582 ± 23
366.25 K, Liquid, x1 = 0.074	532 ± 22
369.65 K, Liquid, x1 = 0.397	952 ± 38
372.55 K, Liquid, x1 = 0.495	955 ± 38
